From patent US6824990B1, “Methods of detecting and modulating oligomerization of G protein-coupled receptors” (priority 1999, dated 2004)

Assays:
[1] = test system: Ste2Δtail-CFP and Ste2Δtail-YFP; assay: FRET between CFP- and YFP-tagged tailless α-factor receptors in intact yeast cells; assay type: cell-based, S. cerevisiae; conditions: cells treated with latrunculin B
Procedure: (§1) Yeast cells expressed tailless α-factor receptors fused to CFP or YFP (Ste2-CFP or -YFP) and/or glucose transporters fused to YFP (Hxt1-YFP), as indicated. Untagged α-factor receptors (Ste2) or glucose transporters (Hxt1) were overexpressed where indicated. Intact cells (panels a-g) or plasma membrane fractions (panels h-i) were excited at the λmax of CFP (440 nm) and fluorescence emission was detected by scanning fluorometry. Fluorescence emission due to FRET (FRET) was determined as: (emission spectrum of cells co-expressing CFP and YFP fusion proteins)—(emission spectrum of cells expressing CFP fusion alone)—(emission spectrum of cells expressing YFP fusion alone). The efficiency of FRET (panel e) was determined as: (integrated FRET curve)/(integrated emission curve obtained upon direct excitation of YFP at 490 nm). In panels f, g and i, only the FRET emission curves are shown for experiments performed under the indicated conditions. The results shown in each panel are representative of at least 6 independent experiments, with equivalent results.
(§2) CFP and YFP were joined 8 amino acids (position 304) beyond transmembrane domain VII of the α-factor receptor (STE2 gene product) and at the immediate C-terminus of a glucose transporter (HXT1 gene product). These fusion proteins were expressed from the STE2 promoter on single copy plasmids with different selectable markers, allowing them to be co-expressed at similar levels as shown by quantitation of CFP and YFP fluorescence. Ste2Δtail-CFP and -YFP fusions had normal agonist binding affinities (1-2 nM) and cell surface expression (6-8,000 receptors/cell), as determined by radioligand binding assays. […] Yeast cells (KBY58, a ste2Δ mutant) expressing CFP and/or YFP fusion proteins were grown at 30° C. in selective media to a density of 10^7 cells/ml, washed, suspended in 50 mM PIPES, pH 6.0 and analyzed by scanning fluorometry. […] Cells (10^7 cells in 3 ml) or membranes (20 μg protein in 3 ml) were irradiated at 440 nm to excite CFP and fluorescence emission was recorded from 460-610 nm. […]

[2] = molecular target: T1, Ste2Δtail-CFP and Ste2Δtail-YFP (Saccharomyces cerevisiae, UniProt D6VTK4); assay: as above; assay type: cell-based, S. cerevisiae
T1 construct: CFP and YFP were joined 8 amino acids (position 304) beyond transmembrane domain VII of the α-factor receptor; expressed in transfected cells; host or cells: S. cerevisiae KBY58 (ste2Δ), single copy plasmids, STE2 promoter
Procedure: as §1, §2

[3] = molecular target: T1, Ste2Δtail-CFP and Ste2Δtail-YFP; assay: FRET in purified plasma membrane fractions; assay type: biochemical, S. cerevisiae
Procedure: as §1, with “The results shown in each panel are representative of at least 6 independent experiments, with equivalent results.” left out
CFP and YFP were joined 8 amino acids (position 304) beyond transmembrane domain VII of the α-factor receptor (STE2 gene product) and at the immediate C-terminus of a glucose transporter (HXT1 gene product). These fusion proteins were expressed from the STE2 promoter on single copy plasmids with different selectable markers, allowing them to be co-expressed at similar levels as shown by quantitation of CFP and YFP fluorescence. […]

T1 sequence (D6VTK4 1-304, stated change not applied): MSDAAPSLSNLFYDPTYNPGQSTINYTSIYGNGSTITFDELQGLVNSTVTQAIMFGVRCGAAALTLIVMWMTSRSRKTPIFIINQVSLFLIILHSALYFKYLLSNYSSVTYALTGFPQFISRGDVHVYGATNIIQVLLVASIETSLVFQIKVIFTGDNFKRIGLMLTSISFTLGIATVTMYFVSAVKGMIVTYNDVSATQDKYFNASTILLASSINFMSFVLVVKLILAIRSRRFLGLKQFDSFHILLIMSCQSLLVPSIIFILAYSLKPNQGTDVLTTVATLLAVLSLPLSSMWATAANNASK

C/C1=C/C(=O)O[C@@H]2C[C@@H](CC[C@H](C)/C=C\CC1)O[C@@](O)([C@@H]1CSC(=O)N1)C2 [latrunculin B]
FRET when the actin cytoskeleton was disassembled [1]: FRET was detected

desTrp1,Ala3,Nle12-α-factor
effect on efficiency of FRET ([2]; given transformant, 1 nM-5 μM, 1-20 min after addition): no effect
apparent efficiency of FRET ([2]; treated cells, sub-saturating to saturating ligand concentrations, indistinguishable from control cells, n=6): 18%±1

Nc1nc2c(ncn2[C@@H]2O[C@H](COP(=O)(O)OP(=O)(O)OP(O)(O)=S)[C@@H](O)[C@H]2O)c(=O)[nH]1 [GTP-γS]
apparent efficiency of FRET ([3]; 5 μM agonist and 50 μM GTP-γS (activated and uncoupled), indistinguishable from inactive, n=11): 20%±2%
effect on efficiency of FRET ([3]; given membrane preparation, GTP-γS 50 μM): no effect
